{
  "source": "patent US20250082760A1",
  "about": "(priority 2020, published 2025)",
  "key": {"[1]": {"experiment": "water solubility experiments", "type": "physicochemical"}, "[2]": {"test_system": "hot plate pain threshold in ICR mice", "experiment": "hot plate method, compound 1, intravenous administration", "type": "in vivo", "conditions": "for Pain threshold before administration: baseline; for Pain threshold before administration / Pain threshold after administration: X ± SD", "description": "(§1) 20 ICR mice, 18-22 g, half male and half male, were purchased from the animal room of Xi′an Jiaotong University School of Medicine; rearing conditions: room temperature 18-20° C., same sex rearing in separate cages, 12-hour light, regular ventilation, conventional full-price solid feed feeding, bedding changed every two days; 20 mice were randomly divided into 2 groups (low-dose test drug group, test drug high-dose group) with 10 mice in each group (5 ♀5).\nAn appropriate amount of compound 1 was accurately weighed and dissolved in 0.9% physiological saline to prepare a concentration of 5 mg/ml (dissolved state is good, basically transparent), which was used as a mother solution. During the test, according to the test requirements, diluted with normal saline to an appropriate concentration.\nThe first group was the low-dose test drug group, and the test drug was given 10 mg/kg by tail vein injection; the second group was the test drug high-dose group, and the test drug was given 15 mg/kg by tail vein injection.\n(§2) The mice were placed in a hot plate apparatus at a temperature of 55±0.5° C., and the pain thresholds of the mice were measured and recorded before administration, 30 minutes after administration, 60 minutes after administration, and 120 minutes after administration."}, "[3]": {"experiment": "physchem"}, "[4]": {"test_system": "hot plate pain threshold in mice", "experiment": "hot plate method, compound 1, intragastric administration", "type": "in vivo", "conditions": "for Pain response time Before administration: baseline, n 10; for Pain response time Before administration / Pain response time After administration: X ± SD; for Pain response time After administration / Pain response time extension rate: 60 min after administration; for Pain response time extension rate: blank group 3.9 ± 6.6", "description": "All the mice participating in the experiment were subjected to hot plate pain threshold detection before the experiment, and qualified mice with pain threshold of 10-40 s were screened.\nAccurately weigh an appropriate amount of compound 1, dissolve it in distilled water and prepare a mother liquor of 100 mg/ml, then dilute to 1.25 mg/ml (25 mg/kg), 2.5 mg/ml (50 mg/kg) with double distilled water respectively; accurately weigh an appropriate amount of the positive control drug gabapentin, dissolve in distilled water and prepare a 100 mg/ml mother solution, and then dilute to 10 mg/ml (200 mg/kg) with double distilled water. All medicines are prepared and utilized as needed.\n40 only qualified mice were divided into 4 groups, half male and half female in each group. The first group is the blank group, no administration; the second group is the positive control (gabapentin) 25 mg/kg group; the third group is the test drug 25 mg/kg group; the fourth group is the test drug 50 mg/kg group 4. All were administered by gavage.\nThe mice were placed in a hot plate apparatus at a temperature of 55±0.5° C., and the pain thresholds of the mice were measured and recorded before administration and 60 min after administration."}, "[5]": {"test_system": "hot plate pain threshold in ICR mice", "experiment": "hot plate method, compound 2, intravenous administration", "type": "in vivo", "conditions": "for Pain threshold before administration: baseline; for Pain threshold before administration / Pain threshold after administration: X ± SD", "description": "as §1, with “same-sex” for “same sex rearing in separate”, “feeding, and the” for “feeding,”, “bedding was” for “bedding”, “group),” for “group) with”, “♀95).” for “♀5).”\nAn appropriate amount of compound 2 was accurately weighed and dissolved in 5% glucose water to prepare a concentration of 2 mg/ml (dissolved state is good, basically transparent), which was utilized as a mother solution. During the test, according to the test requirements, it was diluted with 5% glucose aqueous solution to an appropriate concentration.\nThe first group was the high-dose test drug group, and the test drug was given 10 mg/kg by tail vein injection; the second group was the low-dose test drug group, and the test drug was given 3 mg/kg by tail vein injection.\nas §2"}, "[6]": {"test_system": "convulsions in mice induced by electrical stimulation", "experiment": "anticonvulsant effect on mice induced by electrical stimulation", "type": "in vivo", "description": "(1) Divide 40 mice (20♀20) into 5 groups at random, with 8 mice (4♀4) in each group, and label No. 1 to No. 8 with picric acid respectively; (2) All mice were tested according to the order of groups and labels electrical stimulation, the initial voltage was 40V, the voltage was increased by 2.5V each time, the time interval between two electrical stimulations for the same mouse was 20 min, the threshold voltage value of convulsion and the time from convulsion to complete recovery were recorded, and the dead mice were discarded, qualified mice were screened; (3) After screening, 7 mice (2♀5) in the 40 mice could not recover after convulsions and died, and the remaining 33 qualified mice […]; (4) From standby 7 mice were screened out as a supplement, and the number of the dead mice in step (2) was marked with picric acid and added to the corresponding groups, so that a total of 40 (20♀20) qualified mice in 5 groups were finally obtained., all mice were weighed and recorded.\nPositive drug: sodium valproate (specification 0.2 g), take 1 tablet in a mortar, add 20 ml of 0.5% CMC-Na solution while grinding, to a suspended state, set EP tube for use; test drug (compound 5): Dissolve in distilled water to 5, 10, and 20 mg/ml solutions, respectively, and set EP tubes for later use.\nElectrical stimulation was performed 1.5 hours after the last administration, and each mouse was given the threshold voltage measured before to observe the experimental phenomenon and record whether there was convulsions and death occurred.\nThe first group was the blank control group, which was given 0.4 ml/20 g of 0.5% CMC-Na by gavage; the second group was the positive drug control group, which was given sodium valproate 200 mg/kg by gavage; the third group was the test drug the low-dose group, which was given 100 mg/kg of compound 5 by gavage; the fourth group was the test drug medium-dose group, which was given 200 mg/kg of compound 5 by gavage; the fifth group was the test drug high-dose group, which was given 400 mg/kg of compound 5 by gavage.\n1.5 h after the last administration, electrical stimulation was performed according to the threshold voltage measured before each mouse, the experimental phenomenon was observed, and the occurrence of convulsions and death were recorded. If convulsion occurs, record the time of complete recovery; if no convulsion occurs, continue to increase the voltage with a gradient of 2.5V to measure the current threshold voltage value and recovery time.\nStrictly follow the 5 periods of convulsion in mice, namely, latency period, rigid flexion period, hindlimb extension period, clonic period and recovery period to judge whether the mice have convulsions after electrical stimulation, and the phenomenon of death can not be recovered after convulsions."}, "[7]": {"conditions": "10 mg/kg tail vein group, hot plate 55±0.5° C."}},
  "note": "Where two headings read alike, the source gives them in different places.",
  "data": [
    {"smiles": "CC(C)c1cccc(C(C)C)c1OC(=O)CC1(CN)CCCCC1.Cl", "note": "[Compound 1, 2,6-diisopropylphenyl 2-(1-(aminomethyl)cyclohexyl)acetate hydrochloride]", "values": [
      {"measurement": "solubility", "setting": "[1]", "value": 18000, "unit": "µg/mL"},
      {"measurement": "Pain threshold before administration", "setting": "[2]; [7]", "value": "8.92 ± 3.05", "unit": "s"},
      {"measurement": "Pain threshold after administration", "setting": "[2]; 10 mg/kg tail vein, 30 min", "value": "17.09 ± 6.05", "unit": "s"},
      {"measurement": "Pain threshold after administration", "setting": "[2]; 10 mg/kg tail vein, 60 min", "value": "16.96 ± 6.13", "unit": "s"},
      {"measurement": "Pain threshold after administration", "setting": "[2]; 10 mg/kg tail vein, 120 min", "value": "12.36 ± 5.75", "unit": "s"},
      {"measurement": "Pain threshold before administration", "setting": "[2]; 15 mg/kg tail vein group", "value": "10.90 ± 3.72", "unit": "s"},
      {"measurement": "Pain threshold after administration", "setting": "[2]; 15 mg/kg tail vein, 30 min", "value": "18.88 ± 6.06", "unit": "s"},
      {"measurement": "Pain threshold after administration", "setting": "[2]; 15 mg/kg tail vein, 60 min", "value": "13.49 ± 6.53", "unit": "s"},
      {"measurement": "Pain threshold after administration", "setting": "[2]; 15 mg/kg tail vein, 120 min", "value": "6.47 ± 5.40", "unit": "s"},
      {"measurement": "analgesic effect in the hot plate test", "setting": "[2]; intravenous 10 and 15 mg/kg, 10 mg/kg best, good within 30-60 minutes after injection", "value": "good analgesic effect"},
      {"measurement": "logP", "setting": "[3]", "value": 1.1},
      {"measurement": "Pain response time Before administration", "setting": "[4]; 25 mg/kg gavage group", "value": "22.0 ± 10.2", "unit": "s"},
      {"measurement": "Pain response time After administration", "setting": "[4]; 25 mg/kg gavage", "value": "32.1 ± 14.5", "unit": "s"},
      {"measurement": "Pain response time extension rate", "setting": "[4]; 25 mg/kg gavage", "value": "59.3 ± 66.7", "unit": "%"},
      {"measurement": "Pain response time Before administration", "setting": "[4]; 50 mg/kg gavage group", "value": "20.0 ± 5.9", "unit": "s"},
      {"measurement": "Pain response time After administration", "setting": "[4]; 50 mg/kg gavage", "value": "40.2 ± 17.9", "unit": "s"},
      {"measurement": "Pain response time extension rate", "setting": "[4]; 50 mg/kg gavage", "value": "100.0 ± 91.1", "unit": "%"},
      {"measurement": "analgesic effect, hot plate, gavage", "setting": "[4]; 25 and 50 mg/kg gavage, comparable to gabapentin", "value": "can prolong the reaction time of hot plate pain"}
    ]},
    {"smiles": "CC(C)c1cc(I)cc(C(C)C)c1OC(=O)CC1(CN)CCCCC1.Cl", "note": "[Compound 2, 4-iodo-2,6-diisopropylphenyl 2-(1-(aminomethyl)cyclohexyl)acetate hydrochloride]", "values": [
      {"measurement": "solubility", "setting": "[1]", "value": 13000, "unit": "µg/mL"},
      {"measurement": "logP", "setting": "[3]", "value": 1.66},
      {"measurement": "Pain threshold before administration", "setting": "[5]; 3 mg/kg tail vein group", "value": "11.33 ± 4.08", "unit": "s"},
      {"measurement": "Pain threshold after administration", "setting": "[5]; 3 mg/kg tail vein, 30 min", "value": "12.41 ± 3.67", "unit": "s"},
      {"measurement": "Pain threshold after administration", "setting": "[5]; 3 mg/kg tail vein, 60 min", "value": "10.16 ± 3.38", "unit": "s"},
      {"measurement": "Pain threshold after administration", "setting": "[5]; 3 mg/kg tail vein, 120 min", "value": "6.47 ± 5.40", "unit": "s"},
      {"measurement": "Pain threshold before administration", "setting": "[5]; [7]", "value": "13.18 ± 3.33", "unit": "s"},
      {"measurement": "Pain threshold after administration", "setting": "[5]; 10 mg/kg tail vein, 30 min", "value": "18.10 ± 5.96", "unit": "s"},
      {"measurement": "Pain threshold after administration", "setting": "[5]; 10 mg/kg tail vein, 60 min", "value": "13.98 ± 6.78", "unit": "s"},
      {"measurement": "Pain threshold after administration", "setting": "[5]; 10 mg/kg tail vein, 120 min", "value": "14.18 ± 6.90", "unit": "s"},
      {"measurement": "analgesic effect in the hot plate test", "setting": "[5]; intravenous, at 10 mg/kg performed well 30 minutes after injection", "value": "good analgesic effect"}
    ]},
    {"smiles": "CC(C)c1cccc(C(C)C)c1OC(=O)NCC1(CC(=O)O)CCCCC1", "note": "[Compound 3]", "values": [
      {"measurement": "solubility", "setting": "[1]", "value": 80, "unit": "µg/mL"},
      {"measurement": "logP", "setting": "[3]", "value": 2.38}
    ]},
    {"smiles": "CC(C)c1cc(I)cc(C(C)C)c1OC(=O)NCC1(CC(=O)O)CCCCC1", "note": "[Compound 4]", "values": [
      {"measurement": "solubility", "setting": "[1]", "value": 40, "unit": "µg/mL"},
      {"measurement": "logP", "setting": "[3]", "value": 3.52}
    ]},
    {"smiles": "CC(C)c1cccc(C(C)C)c1OC(=O)CC1(C[N+](C)(C)C)CCCCC1", "note": "[Compound 6, (1-(2-(2,6-diisopropylphenoxy)-2-oxoethyl)cyclohexyl)-N,N,N-tri-methylmethanaminium iodide]", "values": [
      {"measurement": "solubility", "setting": "[1]", "value": 900, "unit": "µg/mL"},
      {"measurement": "logP", "setting": "[3]; fat/water partition (phases not further specified)", "value": 1.54}
    ]},
    {"smiles": "CCCC(CCC)C(=O)[O-].[Na+]", "note": "[sodium valproate, reference compound]", "values": [
      {"measurement": "anti-electrical convulsion ability (threshold voltage increase)", "setting": "[6]; compared with blank group, sodium valproate 200 mg/kg gavage, 1.5 h after last administration, p<0.05", "value": "significantly improve"},
      {"measurement": "weight gain of mice", "setting": "[6]; mouse, in vivo", "value": "no difference"}
    ]}
  ]
}
